{"source": "patent US20100081689A1", "about": "“Methods and Compositions for the Treatment of Iron Toxicity” (Georgetown University, priority 2008, published 2010)", "key": {"rat aortic rings": {"tested_on": "rat aortic rings", "assay": "animal or person", "assay_type": "in vivo, Sprague-Dawley rats", "conditions": "for relaxation response to acetylcholine at 100 nM in iron treated rats given antioxidant: 100 nM acetylcholine, iron sucrose plus Tempol (drinking water), N-acetylcysteine 140 mg/kg iv or Vitamin C 100 mg/kg iv, iron alone 22±10%; for Maximum relaxation of aortic ring in iron-treated animals given antioxidant: iron sucrose 14 mg/kg iv plus Tempol 2 mmol/L in drinking water 72 h or N-acetylcysteine 140 mg/kg iv, iron alone 46±14%", "experimental": "Forty seven normal Sprague-Dawley rats (280-350 g) were included in this study. Twenty three rats were injected in the tail vein with 14 mg/kg iron sucrose (Venofer, American Regent) twenty four hours before dissection of the aortic ring.\nTwenty four hours after iron sucrose injection, the rats were sacrificed by interperitoneal injection of 100 mg/kg Inactin. Blood was collected for measurement of markers of oxidative stress and the thoracic aorta isolated and placed in ice cold PSS.\nThe surrounding tissue of aorta was carefully dissected away and care taken to not damage the endothelium. The aorta was then cut into a 4-5 mm width transverse ring and then mounted isometrically in 10 mL organ bath containing oxygenated PSS warmed to 37° C. and gassed with air.\nThe aortic ring was suspended under a resting force of […] and allowed to equilibrate for 30 minutes before administration of any agents. The bath was perfused with fresh PSS and was washed with PSS after each test response to the administered agents. The aortic ring was preconstricted with 10 nM phenylephrine prior to the addition of acetylcholine, and allowed to equilibrate for another 30 minutes.\nIsometric contraction was measured on an oscillographic recorder. Subsequently acetylcholine was added to the bath in increasing doses of 1 nM to 100 μM and the relaxation response to each dose was recorded as the percentage of the drop in the starting resting force. […] P<0.05 was considered significant."}, "aortic ring": {"tested_on": "aortic ring", "conditions": "cited from earlier work; for iron-induced endothelial dysfunction of the blood vessel: rats, iron co-administered with the antioxidant"}, "MDA levels": {"tested_on": "MDA levels", "conditions": "CKD patients treated with iron gluconate; cited from earlier work"}, "[1]": {"assay": "light stability of Tempol solutions", "assay_type": "physicochemical", "conditions": "solutions left in sunlight"}, "oxidative stress markers": {"tested_on": "oxidative stress markers", "conditions": "cited from earlier work"}}}
{"compound": "CC(=O)N[C@@H](CS)C(=O)O", "note": "[N-acetylcysteine]", "values": [{"measurement": "relaxation response to acetylcholine at 100 nM in iron treated rats given antioxidant", "setting": "rat aortic rings", "result": "42±13", "unit": "%"}, {"measurement": "Maximum relaxation of aortic ring in iron-treated animals given antioxidant", "setting": "rat aortic rings", "result": "69.9±13", "unit": "%"}, {"measurement": "iron-induced endothelial dysfunction of the blood vessel", "setting": "aortic ring", "result": "completely attenuated"}, {"measurement": "MDA level decrease after iron gluconate", "setting": "MDA levels", "result": "not observed"}]}
{"compound": "CC1(C)CC(O)CC(C)(C)N1[O]", "note": "[Tempol, 4-hydroxy-2,2,6,6-tetramethyl-1-piperidine-1-oxyl]", "values": [{"measurement": "relaxation response to acetylcholine at 100 nM in iron treated rats given antioxidant", "setting": "rat aortic rings", "result": "48±17", "unit": "%"}, {"measurement": "Maximum relaxation of aortic ring in iron-treated animals given antioxidant", "setting": "rat aortic rings", "result": "75±15", "unit": "%"}, {"measurement": "iron-induced endothelial dysfunction of the blood vessel", "setting": "aortic ring", "result": "completely attenuated"}, {"measurement": "stability of solutions in sunlight", "setting": "[1]", "result": "discolor when left in sunlight"}]}
{"compound": "O=C1O[C@H]([C@@H](O)CO)C(O)=C1O", "note": "[Vitamin C]", "values": [{"measurement": "relaxation response to acetylcholine at 100 nM in iron treated rats given antioxidant", "setting": "rat aortic rings", "result": "41±8", "unit": "%"}, {"measurement": "relaxation response to 100 nM through 100 μM of acetylcholine, addition to iron treatment", "setting": "rat aortic rings; Vitamin C 100 mg/kg iv with iron sucrose, only statistically significant at 100 nM acetylcholine (FIG. 3)", "result": "increased the relaxation response"}, {"measurement": "reducing iron-induced oxidative stress markers", "setting": "oxidative stress markers; dialysis population", "result": "not been shown to be effective"}, {"measurement": "effect when co-administered with iron", "setting": "oxidative stress markers; subjects with physiologic Vitamin C levels", "result": "pro-oxidant effect"}]}
{"compound": "CC(=O)OCC[N+](C)(C)C", "note": "[acetylcholine]", "values": [{"measurement": "IC50", "setting": "rat aortic rings; Rattus norvegicus, iv, aortic rings preconstricted with 10 nM phenylephrine, all treatment groups, read-out: IC50 for all dose response curves (acetylcholine relaxation of aortic ring)", "result": 100, "unit": "nM"}]}
{"compound": "iron sucrose", "values": [{"measurement": "relaxation response of aortic ring to increasing doses of acetylcholine", "setting": "rat aortic rings; rat, in vivo", "result": "significantly reduced"}, {"measurement": "relaxation response to acetylcholine at 100 nM", "setting": "rat aortic rings; rat, in vivo", "result": "22±10", "unit": "%"}, {"measurement": "Maximum relaxation of aortic ring (percentage of the drop in the starting resting force)", "setting": "rat aortic rings; rat, in vivo, iv, 14 mg/kg", "result": "46±14", "unit": "%"}, {"measurement": "reduction in aortic ring vasodilation in response to acetylcholine", "setting": "aortic ring; rat, in vivo, iv", "result": 40, "unit": "%"}]}
